According to US20060167005A1, “New therapeutic uses of (4-(2-fluorophenyl)-6-methyl-2-(1-piperazinyl) thieno [2,3-d] pyrimidine” (priority 2002, published 2006):

How the values were obtained:
[1] = system: adult female obese Zucker rats; assay: Obesity and weight gain in obese Zucker rats over 32 days; type: in vivo, rat; details: 30 mg/kg orally once daily, vs vehicle group
Description: MCI-225 is evaluated in adult female obese Zucker rats over a period of 32 days. A control group of 6 animals is dosed daily with vehicle alone whilst a second group of 6 weight-matched animals receives MCI-225 at 30 mg/kg given orally once daily. Food is available ad libitum, except on days 0, 7, 14, 21, 28 and 32 when food was removed from the animals at 7.30 am and animals weighed within 2 hours following removal of food. Food is supplied after weights of animals are measured.

ferret = assay: Cisplatin-induced emesis in the ferret; type: in vivo; details: 30 mg/kg orally 1 hour prior to cisplatin, vs control animals
Source text: The effects of MCI-225 are studied against cisplatin-induced emesis in the ferret (see Florczyk et al, 1982, Cancer Treat. Rep. 66(1):187-189). […] Efficacy against cisplatin predicts efficacy against radiation-induced nausea/vomiting.

alcohol-preferring rats = assay: Alcohol intake in alcohol-preferring rats; type: in vivo, rat; details: 30 mg/kg/day orally over 4 consecutive days, vs vehicle
Description: The effects of MCI-225 are determined in alcohol-preferring rats. Because of their pattern of drinking, these animals seem to represent a valid model of the human condition of alcoholism (McBride et al, 1990, Alcohol 7:199-205, Lankford et al, 1991, Pharmacol. Biochem. Behav., 8:293-299). After maximally preferred alcohol concentrations had stabilised for 4 days, MCI-225 at 30 mg/kg/day orally or vehicle was administered over 4 consecutive days.

rats [2] = assay: Nicotine withdrawal model using the acoustic startle reflex in rats; type: in vivo, rat; details: for example 30 mg/kg/day following nicotine withdrawal (nicotine 6 mg/kg/day s.c. for 12 days)
Description: The effects of MCI-225 are investigated in a model of nicotine withdrawal using the acoustic startle reflex in rats (see e.g. Helton et al, 1997, Neuropharmacology 36 (11-12):1511-1516). Nicotine (6 mg/kg/day) is administered for 12 days subcutaneously by osmotic minipumps. After 12 days, the pumps are removed and the animals allowed to go through spontaneous withdrawal. Cessation of chronic nicotine exposure leads to increased startle responses (sensorimotor reactivity) for 4 days following withdrawal.

rats [3] = assay: Transient middle cerebral artery occlusion model in rats; type: in vivo, rat; details: 30 mg/kg, for example 2 hours after onset of occlusion, vs vehicle-treated animals
Source text: The effects of MCI-225 are studied in a transient middle cerebral artery occlusion model in rats (see Chen et al, 1999, J. Neurol. Sci. 171(1):24-30). In particular, effects on an array of functional measures are studied, including rotarod, adhesive-backed somatosensory and neurological scores.

Structure (SMILES): Cc1cc2c(-c3ccccc3F)nc(N3CCNCC3)nc2s1.Cl.O [MCI-225]
- body weights [1]: lower body weights
- emetic response (ferret): reduction in the emetic response
- intake of alcohol in terms of absolute g/kg and/or proportion of alcohol to total fluid intake (alcohol-preferring rats): reduction in intake of alcohol
- enhanced auditory startle response following withdrawal of nicotine (rats [2]): attenuation of the enhanced auditory startle response
- functional scores (rotarod, adhesive-backed somatosensory, neurological) following ischaemia (rats [3]): improvement in one or more of the functional scores
